Columns and labels:
Assay in all cases: relative IC50 (inflection point of fitted viability curve, relative to fitted max inhibition); higher = less sensitive
Settings in all cases: 72 h
NK-YS (IL-2 2.5 ng/mL) = test system: NK-YS (IL-2 2.5 ng/mL)
Experimental: (§1)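 Drug sensitivity and resistance testing: 5 concentrations over a 10,000-fold range, 72 h at 37 °C, viability by CellTiter-Glo normalised to DMSO and benzethonium chloride controls. IC50 is the inflection point of a logistic fit (min fixed at 0, max fitted), so it is relative to the fitted maximal inhibition. Kept only where fitted max inhibition is at least 50%.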

[1] = test system: normal primary NK cells, pool 1 (3 donors) (IL-2 2.5 ng/mL)
Experimental: as §1

IMC-1 (IL-2 20 ng/mL) = test system: IMC-1 (IL-2 20 ng/mL)
Experimental: as §1

KAI3 (IL-2 2.5 ng/mL) = test system: KAI3 (IL-2 2.5 ng/mL)
Experimental: as §1

NK-92 (IL-2 2.5 ng/mL) = test system: NK-92 (IL-2 2.5 ng/mL)
Experimental: as §1

SNK-6 (IL-2 2.5 ng/mL) = test system: SNK-6 (IL-2 2.5 ng/mL)
Experimental: as §1

NKL (IL-2 2.5 ng/mL) = test system: NKL (IL-2 2.5 ng/mL)
Experimental: as §1

DERL-7 (IL-2 2.5 ng/mL) = test system: DERL-7 (IL-2 2.5 ng/mL)
Experimental: as §1

YT (IL-2 2.5 ng/mL) = test system: YT (IL-2 2.5 ng/mL)
Experimental: as §1

[2] = test system: normal primary NK cells, pool 1 (3 donors), resting (IL-2 0 ng/mL)
Experimental: as §1

KHYG-1 (IL-2 2.5 ng/mL) = test system: KHYG-1 (IL-2 2.5 ng/mL)
Experimental: as §1

[3] = test system: normal primary NK cells, pool 3 (3 donors) (IL-2 2.5 ng/mL)
Experimental: as §1

[4] = test system: normal primary NK cells, pool 2 (3 donors) (IL-2 2.5 ng/mL)
Experimental: as §1

Row | SMILES | relative IC50 (NK-YS (IL-2 2.5 ng/mL)) [nM] | relative IC50 [1] [nM] | relative IC50 (IMC-1 (IL-2 20 ng/mL)) [nM] | relative IC50 (KAI3 (IL-2 2.5 ng/mL)) [nM] | relative IC50 (NK-92 (IL-2 2.5 ng/mL)) [nM] | relative IC50 (SNK-6 (IL-2 2.5 ng/mL)) [nM] | relative IC50 (NKL (IL-2 2.5 ng/mL)) [nM] | relative IC50 (DERL-7 (IL-2 2.5 ng/mL)) [nM] | relative IC50 (YT (IL-2 2.5 ng/mL)) [nM] | relative IC50 [2] [µM] | relative IC50 (KHYG-1 (IL-2 2.5 ng/mL)) [nM] | relative IC50 [3] [nM] | relative IC50 [4] [nM]
1 | Cc1ccc(NC(=O)c2ccc(CN3CCN(C)CC3)cc2)cc1Nc1nccc(-c2cccnc2)n1 [Imatinib] | 2920 | 1650 | 3400 | 3230 | 2230 | 4290 | 3600 | 2190 | 2740 | 1.98 | 3080 |  | 
2 | CO[C@@]12[C@H](COC(N)=O)C3=C(C(=O)C(C)=C(N)C3=O)N1C[C@@H]1N[C@@H]12 [Mitomycin C] | 350 |  | 2710 | 1060 | 1510 | 423 | 152 |  | 3200 | 1.63 | 432 | 1410 | 1010
3 | c1ccc([C@H]2CN3CCSC3=N2)cc1 [Levamisole] | > 10000 |  |  | > 10000 | > 10000 |  |  |  | > 10000 |  | > 10000 | > 10000 | > 10000
4 | Cc1c(NC(=O)OC[C@@H]2COCCN2)cn2ncnc(Nc3ccc4c(cnn4Cc4cccc(F)c4)c3)c12 |  |  |  | 3180 | 2400 |  | 3110 | 2730 |  | 3.97 | 2230 |  | 3090
5 | COc1cc2nccc(Oc3ccc(NC(=O)NC4CC4)c(Cl)c3)c2cc1C(N)=O [Lenvatinib] |  |  |  |  |  | > 2500 |  |  |  |  |  |  | > 2500
6 | CNC(=O)c1cc(Oc2ccc(NC(=O)Nc3ccc(Cl)c(C(F)(F)F)c3)cc2)ccn1 [Sorafenib] |  | > 1000 | > 1000 |  |  |  | > 1000 |  |  |  |  | > 1000 | > 1000
7 | CC(C)(C)Cn1c(N)nc2ccc(-c3[nH]c(C(C)(C)C)nc3-c3ccc(F)cc3)nc21 [Ralimetinib] |  | 3570 | > 10000 |  | 1960 |  | 1600 |  | 2220 | 4 |  |  | 
8 | CCC/C=C/C=C/C(=O)O[C@H]1/C(=C/C(=O)OC)C[C@H]2C[C@H]([C@@H](C)O)OC(=O)C[C@H](O)C[C@@H]3C[C@H](OC(C)=O)C(C)(C)[C@](O)(C[C@@H]4C/C(=C/C(=O)OC)C[C@H](/C=C/C(C)(C)[C@]1(O)O2)O4)O3 [Bryostatin 1] |  | > 100 | 0.28 |  | 0.23 | 1 | > 100 |  |  |  | 0.13 | > 100 | > 100
9 | O=C(O)c1ccc2c(c1)nc(Nc1cccc(Cl)c1)c1ccncc12 [Silmitasertib] | 2170 | 1690 |  | 1780 | 3900 | 3730 | 1850 | 2270 | 1650 | 3.78 | 2010 | 2040 | 2230
10 | COc1cc(N2CCN(C)CC2)ccc1Nc1nccc(-c2cn(C)c3cnccc23)n1 [AZ191] | 2440 | 3430 | 2910 | 2510 | 3940 | 3570 | 2340 | 1650 |  | 4.32 | 1890 | 3870 | 3700
11 | COc1cc2nccc(Oc3ccc(NC(=O)C4(C(=O)Nc5ccc(F)cc5)CC4)cc3)c2cc1OC [Cabozantinib] |  | > 1000 |  |  |  |  |  |  |  |  |  |  | 
12 | CS(=O)(=O)c1ccc(C2=C(c3ccccc3)C(=O)OC2)cc1 [Rofecoxib] |  |  |  |  |  |  |  |  |  | > 10 |  | > 10000 | 
13 | O=C(NOC[C@H](O)CO)c1ccc(F)c(F)c1Nc1ccc(I)cc1F |  |  |  |  | > 1000 |  | 19.9 | 10 |  |  | 31.6 | > 1000 | 
14 | CN(C[C@@H]1COCCO1)S(=O)(=O)Nc1ccc2ccc3ncc(-c4cnn(C)c4)cc3c(=O)c2c1 [MK-2461] |  |  |  |  |  |  |  | 1770 |  |  |  | > 10000 | 
15 | CCNC(=O)c1noc(-c2cc(C(C)C)c(O)cc2O)c1-c1ccc(CN2CCOCC2)cc1 [Luminespib] | 3.79 | 3.66 | 9.73 | 3.47 | 7.37 | 12.4 | 3.28 | 3.05 | 26.2 |  | 10.4 | 4.81 | 3.27
16 | CNNCc1ccc(C(=O)NC(C)C)cc1 [Procarbazine] | > 10000 | > 10000 | > 10000 | > 10000 | > 10000 |  | > 10000 | > 10000 | > 10000 |  | > 10000 | > 10000 | > 10000

Reference: the supplement of paper PMC5908809
